# Assay results taken from patent US8394824B2 (priority 2004, dated 2013).
# Key:
# [1] = tested on: specific allergic asthma of guinea pigs; conditions: guinea pig, in vivo
SMILES,ileum contraction response resulted from electric irritation (ex vivo ileum specimen),latent period [1]
"C[N+]12CCC(CC1)C(OCC(O)(c1ccccc1)C1CCCC1)C2.[Br-] (single isomer, unassigned) [Example 3, 1-type diastereoisomer of 3-(N-methyl-quinuclidinyl)-(2′-phenyl-2′-cyclopentyl-2′-hydroxyl)ethyl ether bromide]",completely blocked,243.50 ± 42.13 s
"C[N+]12CCC(CC1)C(OCC(O)(c1ccccc1)C1CCCC1)C2.[Br-] (single isomer, unassigned) [Example 4, II-type diastereoisomer of 3-(N-methyl-quinuclidinyl)-(2′-phenyl-2′-cyclopentyl-1-2′-hydroxyl)ethyl ether bromide]",completely blocked,231.60 ± 37.30 s
"C[N+]12CCC(CC1)C(OCC(O)(c1ccccc1)C1CCCC1)C2.[Br-] (stereo not drawn) [Example 2, 3-(N-methyl-quinuclidinyl)-(2′-phenyl-2′-cyclopentyl-2′-hydroxyl)ethyl ether bromide]",completely blocked,248.90 ± 38.24 s
